# From article PMC10289957 (Investigational New Drugs, 2023)
# Like-named read-outs stand apart in the source and are kept apart here. Marks after values point to notes of the source that are not given here.
# Assays:
# [1] = human, in vivo
# Protocol: (§1) Serial plasma samples were collected for PK analysis on days 1 and 4 of cycle 1 before the morning dose; at 1, 2, 4, 6, and between 8−12 h after the morning dose. Additional samples were taken before the morning dose and 1 and 4 h after the morning dose on days 1 and 4 of cycle 2 and days 1 and 4 of cycle 5. PK parameters were determined using standard noncompartmental methods with Phoenix WinNonlin v8.1 (Certara, Princeton, NJ). Area under the plasma concentration−time curve (AUC) was calculated using the linear up/log down trapezoidal rule.
# [2] = tested on: advanced solid tumors; conditions: MK-8353 300−400 mg twice daily, 3/15 patients; cited from earlier work
# [3] = tested on: human cancer xenograft models; conditions: various human cancer xenograft models; cited from earlier work
# [4] = clinical; conditions: human, in vivo, Observed median time of maximum plasma concentration, range over dose levels
# Protocol: as §1
# [5] = tested on: patients with advanced solid tumors; conditions: cited from earlier work
# [6] = tested on: preclinical models; parameters: method as in PMID 29774094, PMID 33273059; conditions: cited from earlier work
# [7] = tested on: advanced cancers; parameters: method as in PMID 25385055; conditions: selumetinib monotherapy, patients with advanced cancers; cited from earlier work
# [8] = tested on: patients; parameters: method as in PMID 30681641; conditions: cited from earlier work
# [9] = Plasma pharmacokinetics after oral administration of the combination (noncompartmental); conditions: for AUC0−12 / AUC0−last / Cmax / tlast / tmax: plasma; for AUC0−12 / AUC0−last / Cmax: geometric mean (% geometric CV); for tlast / tmax: median (range)
# Protocol: as §1
# [10] = MK-8353 400 mg twice daily (MTD)
# [11] = MK-8353 400 mg twice daily, n = 7
# [12] = MK-8353 800 mg twice daily, 6 patients
# [13] = cycle 1 Day 1, MK-8353 50 mg + selumetinib 25 mg oral BID
# [14] = cycle 1 Day 1, MK-8353 100 mg + selumetinib 50 mg oral BID
# [15] = cycle 1 Day 1, MK-8353 150 mg + selumetinib 75 mg oral BID
# [16] = cycle 1 Day 4, MK-8353 50 mg + selumetinib 25 mg oral BID
# [17] = cycle 1 Day 4, MK-8353 100 mg + selumetinib 50 mg oral BID
# [18] = cycle 1 Day 4, MK-8353 150 mg + selumetinib 75 mg oral BID
structure (smiles),measurement,setting,value
CS[C@@]1(C(=O)Nc2ccc3[nH]nc(-c4ccc(OC(C)C)nc4)c3c2)CCN(CC(=O)N2CC=C(c3ccc(-c4ncn(C)n4)cc3)CC2)C1 [MK-8353],Accumulation at steady state,[1],≤ 2 fold
same,Patients with a partial response,[2],20%
same,Antitumor activity,[3],Antitumor activity of MK-8353 was demonstrated
same,tmax,"[4]; cycle 1, all dose levels",1.97 to 2.05 h
same,Eye disorders,[5]; [10],no eye disorders occurred
same,Macular rash,[5]; [10],1 n
same,Maculopapular rash,[5]; [10],3 n
same,Pruritus,[5]; [10],1 n
same,Urticaria,[5]; [10],1 n
same,Diarrhea,[5]; [11],2 n
same,Dyspepsia,[5]; [11],2 n
same,Nausea,[5]; [11],4 n
same,Vomiting,[5]; [11],2 n
same,Safety and tolerability,[5]; MK-8353 400 mg twice daily,safe and well tolerated
same,Blurred vision,[5]; [12],2 n
same,Visual impairment,[5]; [12],3 n
same,Vitreous floaters,[5]; [12],1 n
same,MTD of MK-8353 monotherapy,[5],400 mg twice daily
COC[C@H]1Cn2cc(-c3nc(Nc4ccnn4C)ncc3C)nc2C(=O)N1Cc1ccc(F)c(F)c1 [AZD0364],Antitumor activity of ERK inhibitor plus selumetinib versus each agent alone,[6],greater antitumor activity versus each agent alone
Cn1cnc2c(F)c(Nc3ccc(Br)cc3Cl)c(C(=O)NOCCO)cc21 [selumetinib],Accumulation at steady state,[1],≤ 2 fold
same,Geometric mean minimum plasma concentration (Ctrough),[1],0.101−0.456 µmol/L
same,Time of Cmax after dosing,[1],≤ 2 h
same,Objective response rates,[7],up to 15%
same,Rates of treatment-related eye disorders,"[8]; selumetinib combination therapy with other agents (chemotherapies, targeted therapies)",up to 40%
same,Rates of treatment-related eye disorders,"[8]; selumetinib monotherapy, previous studies",10−20%
same,tmax,[4],1 to 1.96 h
O=C(NOCCO)c1cc2[nH]cnc2c(F)c1Nc1ccc(Br)cc1Cl [desmethyl selumetinib],Geometric mean minimum plasma concentration (Ctrough),[9]; from lowest to highest dose,8 to 26 nM
same,AUC0−12,[9]; [13],0.161 (52.4) h∙µmol/L
same,AUC0−last,[9]; [13],0.144 (47.7) h∙µmol/L
same,Cmax,[9]; [13],43.7 nM
same,tlast,[9]; [13],8.02 (7.83–8.07) h
same,tmax,[9]; [13],1.88 (0.92–2.05) h
same,AUC0−12,[9]; [14],0.344 (73.5)^l h∙µmol/L
same,AUC0−last,[9]; [14],0.261 (118.6) h∙µmol/L
same,Cmax,[9]; [14],93.5 nM
same,tlast,[9]; [14],8.00 (3.92–11.33) h
same,tmax,[9]; [14],1.02 (0.88–2.08) h
same,AUC0−12,[9]; [15],0.690 (56.3)^j h∙µmol/L
same,AUC0−last,[9]; [15],0.547 (61.3) h∙µmol/L
same,Cmax,[9]; [15],158 nM
same,tlast,[9]; [15],8.00 (7.83–8.37) h
same,tmax,[9]; [15],1.92 (0.83–4.00) h
same,AUC0−12,[9]; [16],0.230 (63.5) h∙µmol/L
same,AUC0−last,[9]; [16],0.202 (60.5) h∙µmol/L
same,Cmax,[9]; [16],56.3 nM
same,tlast,[9]; [16],8.05 (7.97–8.08) h
same,tmax,[9]; [16],1.88 (1.87–2.00) h
same,AUC0−12,[9]; [17],0.386 (49.6)^k h∙µmol/L
same,AUC0−last,[9]; [17],0.267 (102.1) h∙µmol/L
same,Cmax,[9]; [17],72.4 nM
same,tlast,[9]; [17],8.00 (5.83–8.33) h
same,tmax,[9]; [17],1.96 (0.95–3.97) h
same,AUC0−12,[9]; [18],0.681 (35.7)^k h∙µmol/L
same,AUC0−last,[9]; [18],0.486 (87.7)^f h∙µmol/L
same,Cmax,[9]; [18],97.7 nM
same,tlast,[9]; [18],8.00 (0.00–8.05)^h
same,tmax,[9]; [18],1.07 (0.00–5.92)^h
same,Accumulation at steady state,[9]; twice daily dosing,≤ 2 fold
Cc1cccc(CN2C(=O)c3cc(-c4nc(Nc5ccnn5C)ncc4C)cn3C[C@@H]2C)n1 [AZ6197],Antitumor activity of ERK inhibitor plus selumetinib versus each agent alone,[6],greater antitumor activity versus each agent alone
